Activity calls are given as the source filed them. How the calls were made is not given here.

Chain of Ubiquitin carboxyl-terminal hydrolase 10 (Homo sapiens) (Q14694 whole entry, looked up): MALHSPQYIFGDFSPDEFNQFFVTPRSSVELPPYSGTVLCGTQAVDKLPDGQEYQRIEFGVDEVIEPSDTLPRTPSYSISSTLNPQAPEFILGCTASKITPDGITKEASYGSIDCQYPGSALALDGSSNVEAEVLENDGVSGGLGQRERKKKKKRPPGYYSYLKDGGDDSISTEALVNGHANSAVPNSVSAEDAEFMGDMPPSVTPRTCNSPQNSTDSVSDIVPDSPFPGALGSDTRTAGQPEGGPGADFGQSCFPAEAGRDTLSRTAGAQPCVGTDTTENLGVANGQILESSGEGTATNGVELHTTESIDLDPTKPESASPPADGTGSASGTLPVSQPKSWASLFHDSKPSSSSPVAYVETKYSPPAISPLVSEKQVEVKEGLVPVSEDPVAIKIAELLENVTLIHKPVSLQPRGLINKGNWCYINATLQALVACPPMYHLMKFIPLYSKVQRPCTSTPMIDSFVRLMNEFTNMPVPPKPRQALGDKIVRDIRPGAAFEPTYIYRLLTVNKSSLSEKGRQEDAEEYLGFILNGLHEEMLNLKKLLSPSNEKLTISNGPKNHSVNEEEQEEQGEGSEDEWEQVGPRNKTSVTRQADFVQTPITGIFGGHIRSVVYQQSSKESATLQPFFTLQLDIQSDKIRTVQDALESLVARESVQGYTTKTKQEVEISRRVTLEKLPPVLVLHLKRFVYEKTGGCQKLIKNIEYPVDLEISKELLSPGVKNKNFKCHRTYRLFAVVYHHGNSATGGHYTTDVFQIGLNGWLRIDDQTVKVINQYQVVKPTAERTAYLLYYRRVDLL

This assay has as its target Ubiquitin carboxyl-terminal hydrolase 10 (Homo sapiens) (UniProt Q14694). Kind of assay: primary hit verification, biochemical, ubiquitin-specific protease 10 deubiquitylase inhibitors, concentration-effect titration (AID 1645863).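 Further: potency values describe inhibition of USP10 cleavage of a fluorogenic ubiquitin substrate.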 To be noted: USP10 deubiquitinase enzymatic assay.
A word on the IC50: it is the concentration at which inhibition is half-maximal. Consider `Cc1cccc(OCC2=NN3C(=N)/C(=C\c4cc(C)n(-c5cc(C)cc(C)c5)c4C)C(=O)N=C3S2)c1`, for which the IC50 is > 40 µM (inactive).
For `Cc1cc(-c2nnc(SCC(=O)Nc3ccc(Br)c(C)c3)n2N)n[nH]1` the value was > 40 µM (inactive).
For `O=c1[nH]c(C2CCN(S(=O)(=O)c3ccc(S(=O)(=O)NC4CCCCC4)cc3)CC2)nc2c1nnn2Cc1ccc(F)cc1` the value was 21.9 µM; for `O=C(Nc1cccc(Cl)c1)c1ncn2c1CNS(=O)(=O)c1ccccc1-2`, 19.1 µM; for `COc1ccc(NC2c3ccccc3C(=O)N2c2ccccn2)cc1` (configuration not stated), > 40 µM (inactive).
In the case of `Cn1cc2cccc(NC(=O)c3ccc(F)cc3)c2n1` it was > 40 µM (inactive); in that of `COc1ccc(Cl)cc1NC(=O)Cn1c(=O)n(CCCC(=O)NCc2ccc(C)cc2)c(=O)c2sccc21`, 31.1 µM.
With `Cc1ccc(-c2nnc3ccc(SCC(=O)N4CCCc5ccccc54)nn23)cc1`, the IC50 is > 40 µM (inactive).
For `COc1cc(C2CC(=O)c3c([nH]c(C(=O)OCCOc4ccccc4)c3C)C2)cc(OC)c1OC` (configuration not stated) the value was > 40 µM (inactive).
For `COc1ccc(CC(=O)OCC(=O)N2c3ccccc3NC(=O)C2(C)C)cc1` the value was > 40 µM (inactive); for `O=C(NCCN1CCOCC1)c1cn2cc(Cl)ccc2n1`, > 40 µM (inactive).
For `O=C(Cn1nc2c3c4c(sc3ncn2c1=O)CCCCC4)Nc1ccc(Cl)cc1F` the value was 10.9 µM; for `COc1cc(-c2ccccc2)c(O)c(O)c1-c1ccccc1`, 14 µM; for `O=c1cc(Cc2ccccc2)nc2c(-c3ccccc3)c(COc3ccccc3)[nH]n12`, “inactive”.
As to `Cc1cc(C)c(C#N)c(N2CCN(CCOc3ccc(Cl)cc3)CC2)n1`, the IC50 was > 40 µM (inactive).
Take `CN(C)[C@@H]1C(=O)C(C(N)=O)=C(O)[C@@]2(O)C(=O)C3=C(O)c4c(O)cccc4[C@@](C)(O)C3[C@H](O)[C@@H]12` (some centres not stated): the IC50 is 1.1 µM.
`COc1ccc(/C=C/C(=O)Nc2ccc3nc(N4CCN(c5ncccn5)CC4)cc(C)c3c2)cc1`: the IC50 was > 40 µM (inactive).
For `Cc1cc(NC(=O)Cn2c(=O)n(CCCCC(=O)NCc3ccco3)c(=O)c3ccccc32)ccc1Br` the value was 14.6 µM; for `O=C(c1ccccn1)N1CCC2(CC1)CC1(CO2)Nc2ccccc2-n2cccc21` (configuration not stated), > 40 µM (inactive).
In the case of `CCn1c(SCC(=O)c2c(N)n(CC(C)C)c(=O)n(C)c2=O)nnc1-c1ccccc1` it was > 40 µM (inactive); in that of `CCn1c(SCC(=O)Nc2ccc(C)c(Cl)c2)nnc1-c1ccc2c(c1)OCCO2`, > 40 µM (inactive); in that of `CC(C)n1cc(CN2CCC(C(=O)Nc3cccc(-c4cccc(Cl)c4)c3)CC2)cn1`, > 40 µM (inactive).
For `O=C(Nc1cccc2ccccc12)N1CCC(c2nc3c(nnn3Cc3ccc(F)cc3)c(=O)[nH]2)CC1` the value was > 40 µM (inactive); for `O=C(CCCn1c(=O)c2cc(Cl)ccc2n(CC(=O)Nc2cccc(F)c2)c1=O)NCc1ccco1`, > 40 µM (inactive).
Regarding `COc1ccccc1N1CCN(C(=O)c2ccc3c(=O)n(CCc4ccccc4)c(=O)[nH]c3c2)CC1`, the IC50 is > 40 µM (inactive).
For `CC/C=C\C/C=C\C/C=C\CCCCCCCC(=O)O` the value was 11.9 µM.
Regarding `O=C(Nc1ccccc1-c1nc(-c2ccccn2)no1)c1cc(Cl)ccc1Cl`, the IC50 was > 40 µM (inactive).
In the case of `N#Cc1cccc(NC(=O)Cn2cccc2-c2nc(-c3ccccc3)no2)c1` it was > 40 µM (inactive).
Turning to `Cc1ccc(NC(=O)Cc2sc(Nc3ccc(C)cc3)nc2O)cc1`, the IC50 is > 40 µM (inactive).
On to `CC(OC(=O)c1cc(S(=O)(=O)Nc2ccccc2F)ccc1Cl)C(=O)Nc1ccc([N+](=O)[O-])cc1C(F)(F)F` (configuration not stated), for which the IC50 is 16 µM.
In the case of `O=C1CC(c2ccccc2)n2ncnc2N1` (configuration not stated) it was > 40 µM (inactive).
In the case of `Cc1c(Cl)cccc1NC(=O)Cn1cc(C(=O)C2CC2)c2ccccc21` it was > 40 µM (inactive).

The values above are taken from PubChem BioAssay AID1645863 (Buhrlage Lab, Dana-Farber Cancer Institute and Novartis …, 2021).
